Measured values from patent US20030064989A1, “Inhibitors of cell proliferation, angiogenesis, fertility, and muscle contraction” (priority 2001, published 2003).
Where “and” joins values, the source holds several entries; their conditions need not be identical. Equal entries are not always repeated.

Tests used:
[1] = tested on: chick chorioallantoic membrane (CAM); test: Chick chorioallantoic membrane (CAM) assay, CAM area
Procedure: The chick chorioallantoic membrane (CAM) assay is perhaps the most widely used assay for screening anti-angiogenic or growth inhibitory compounds (see, e.g. Ribatti et al., Int. J. Dev. Biol. 40:1189-1197 (1996)). Cell proliferation and angiogenesis were evaluated by measuring CAM area and BrdU labeling using the CAM assay as modified by Melkonian et al., J. Exp. Zool. (2001), in review. Fertilized chicken eggs were purchased from Hy-Line International (Lakeview, CA), then incubated at 37° C. at 85-90% relative humidity throughout the experiment. Experiments were done to evaluate cell proliferation, angiogenesis, and vascularization in CAMs between days 5 and 6 after fertilization. Albumin (2.5-3.0 cc) was removed on the fourth day after fertilization to drop the embryo away from the shell. Windows were then made in shells, and sealed with transparent tape to allow subsequent access to the CAM for experimental treatment. 200 μl of either EBSS-H or different concentrations of pure chemicals were added to the surface of each CAM at 10 AM on the fifth day after fertilization. A sham control group in which the window was opened and resealed was also included in each experiment. In all cases, the following five concentrations of test reagents were used, 5×10^−3 M, 5×10^−5 M, 5×10^−7M, 5×10^−9 M and 5×10^−11M. For 2-ethylpyridine and 3-ethylpyridine additional concentrations of 5×10^−12M, 5×10^−13M, 5×10^−14 M and 5×10^−15 M were used. For nicotine and nornicotine, concentrations of 5×10^−4 M, 5×10^−6 M, 5×10^−8 M and 5×10^−10 M were also used. Development was terminated at 10 AM on the sixth day after fertilization by fixing the embryo and the CAM with 3% glutaraldehyde in 0.1M cacodylate buffer (pH 7.4) for 2 hours at room temperature. A small volume of fixative was also injected under the CAM. The CAMs were later dissected from eggs, post-fixed in the same fixative for 24 hours at room temperature, then thoroughly rinsed in PBS.
At least 6 CAMs were used in each control and experimental group. Parameters which measure aspects of cell proliferation, angiogenesis, and vacularization were quantified for each CAM. These parameters include: (1) for cell proliferation—CAM area, BrdU labeling of nuclei; (2) for angiogenesis—blood vessel pattern, blood vessel area, blood vessel diameter, and blood vessel branching; (3) for vascularization—density of angiogenic clusters. The area of each CAM was measured by placing the CAMs in PBS in a Petri dish under a Wild-M5A dissecting microscope (Max ERB instrument Co., Burbank, CA), then measuring the longest and shortest length of each CAM with a ruler to the precision of 0.5 mm. The data were recorded into Excel spreadsheet. CAM area was calculated using the formula:
where A=longest length, B=longest width, π=3.14.
Means and standard deviations were then calculated for each control and treatment group. The treated group means were used to compare with control means to determine the effect of each chemical on CAM growth.
On the fifth day after fertilization, either EBSS-H or different concentrations of test chemicals were added to each CAM. A sham group in which windows were opened and resealed without adding any solution was also included to determine if the vehicle EBSS-H had any effect on CAM area. Development was terminated 24 hours later, and CAMs were measured as described in Materials and Methods.

[2] = tested on: hamster oviduct explants (infundibulum); test: Oocyte pickup rate (OPR) assay; assay type: cell-based, golden hamsters (Mesocricetus auratus)
Procedure: Hamsters were injected with 25 I.U. of human chorionic gonadotropin (hCG) on the evening of Day 4 of their estrous cycle. On the day of the experiment, approximately 12 hours after the injection of hCG, hamsters were sacrificed using CO2, and oviducts and ovaries were removed. During dissection the oviduct and ovary were separated. Ovaries were isolated in EBSS-HA and expanded follicles were poked with a dissecting needle to release the oocyte cumulus complexes (OCCs). Oocyte cumulus complexes were transferred to a fresh Petri dish and placed in EBSS-HA. The infundibulum was cut from the oviduct leaving part of the ampulla attached to function as a handle. […]
Oocyte cumulus complex pick-up rate was measured using hamster oviduct explants in an in vitro assay (Huang et al., 1997, supra; Knoll et al., 1998, supra; Talbot et al., 1998, supra). […] An oocyte cumulus complex was placed at the base of the infundibulum and the length of time needed for the complex to traverse a defined path to the ostium was recorded. […] Then the test smoke solution or chemical was added to the perfusion chamber and allowed to incubate for five minutes after which pickup-rate was measured again. […] Oocyte pickup-rate was measured again and this rate was recorded as the “recovery” measurement. […]

[3] = tested on: hamster oviduct explants (infundibulum); test: Ciliary beat frequency assay; assay type: cell-based, golden hamsters (Mesocricetus auratus)
Procedure: Ciliary beat frequency was measured using hamster oviduct explants in an in vitro assay (Knoll et al., 1998, supra; Talbot et al., 1998, supra). Perfusion chambers containing infundibula were placed on a Wild stereoscopic microscope (model BD-HF) and viewed at 50×. A video image was sent from the microscope to a Dell computer using a Hitachi camera and recorded using a VCR onto a Super VHS videotape. To measure cilia beat frequency the videotape was played back frame-by-frame. The VCR recorded 15 frames per second. Each frame represented a fraction of a cycle; the completion of a cycle was equivalent to one beat. Number of frames per cycle (or frames per beat) were measured and then converted into beats per second. Ten measurements were made for each infundibulum for each treatment group. Recordings were made for 40-60 seconds per region, which ensured an adequate amount of data for analysis.
For the ciliary beat frequency, oocyte pickup rate, and infundibular muscle contraction graphs, purified 3-ethylpyridine was purchased and dissolved in EBSS. A hamster infundibulum was exposed to a dose range of 9.33 e-7 to 9.33 e-4 mM (four dose groups total) for five minutes and oocyte pickup rate, ciliary beat frequency, and infundibular contraction were measured. […]

hamster infundibula = test: Infundibular muscle contraction assay; assay type: cell-based, golden hamsters (Mesocricetus auratus)
Source text: The infundibular muscle contraction assay was developed after observing consistent infundibular contractions that slowed or ceased after treatment with mainstream smoke solutions. Perfusion chambers containing infundibula were placed on a Wild stereoscopic microscope (model BD-HF) and viewed at 50×. A video image was sent from the microscope to a Dell computer using a Hitachi camera and the infundibular contractions could be observed and measured on the computer monitor. As the infundibulum contracted, the image shown on the monitor moved a measurable distance. This distance was measured during each contraction by placing a ruler against the computer monitor. These values (in centimeters) were then converted to actual distance by capturing an image of a ruler under the microscope and converting the measured values to micrometers. Frequency was also measured by observing the contracting infundibula on the computer monitor. The number of times the infundibulum contracted per minute was recorded. Each parameter was measured four to six times per infundibulum per treatment group.
For the ciliary beat frequency, oocyte pickup rate, and infundibular muscle contraction graphs, purified 3-ethylpyridine was purchased and dissolved in EBSS. […]

[4] = CAM area, day 5-6 CAMs, 24 hours
[5] = five minutes, single infundibulum

SMILES: CCc1cccnc1 [3-ethylpyridine]
- lowest effective dose lower than that of the single pyridine ring ([1]; CAM area): 10 million
- LOAEL [1, 4]: 5.36e-10 mg/mL
- LOAEL (Molar) [1, 4]: 5 pM
- NOAEL (Molar) [1, 4]: 0.5 pM
- minimal effective concentration ([1]; Gallus gallus, 24 h, read-out: lowest effective dose on CAM area): 5e-06 µM and 5.4e-07 µg/mL
- concentration at which oocyte pickup rate was significantly inhibited [2, 5]: 9.33 e-7 mM
- reversibility of effect on OPR after the recovery period ([2]; recovery period): partially reversible
- concentration at which ciliary beat frequency was significantly inhibited [3, 5]: 9.33 e-7 mM
- CBF during the recovery period ([3]; recovery period): continued to decrease
- concentration at which infundibular muscle contraction rate was significantly inhibited (hamster infundibula; [5]): 9.33 e-7 mM
- reversibility of effect on contraction rate after the recovery period (hamster infundibula; recovery period): partially reversible
